Experimental data reported in patent US20130109682A1, “CYCLIC ETHER COMPOUNDS USEFUL AS KINASE INHIBITORS” (NOVARTIS AG, priority 2010, published 2013).

Assays:
Type in all cases: biochemical
[1] = target: GSK3β (Homo sapiens, UniProt P49841); test: GSK3β ATP depletion assay; conditions: ATP depletion assay; read-out: GSK3b IC50
Summary of the method: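 Human GSK3β (5 nM) preincubated 15 min with 10 μM biotinylated phospho-CREB peptide in pH 7.5 Tris buffer (15 mM MgCl2, 1 mM DTT, 0.1% BSA, 2.5% DMSO). Reaction started with 2 μM ATP and run to about 50% ATP depletion. Remaining ATP measured by KinaseGlo luminescence.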

[2] = target: PIM1 (Homo sapiens, UniProt P11309); test: Pim 1 AlphaScreen assay (high ATP); conditions: read-out: Pim1 IC50
Description: (§1) Pim1, Pim2, Pim3 AlphaScreen Assay Pim 1, Pim 2 & Pim 3 AlphaScreen assays using high ATP (11-125×ATP Km) were used to determine the biochemical activity of the inhibitors. The activity of Pim 1, Pim 2, & Pim 3 is measured using a homogeneous bead based system quantifying the amount of phosphorylated peptide substrate resulting from kinase-catalyzed phosphoryl transfer to a peptide substrate. Compounds to be tested are dissolved in 100% DMSO and directly distributed to a white 384-well plate at […] per well. To start the reaction, 5 μl of 100 nM Bad peptide (Biotin-AGAGRSRHSSYPAGT —OH) and ATP (concentrations described below) in assay buffer (50 mM Hepes, pH=7.5, 5 mM MgCl2, 0.05% BSA, 0.01% Tween-20, 1 mM DTT) is added to each well. This is followed by the addition of 5 μl/well of Pim 1, Pim 2 or Pim 3 kinase in assay buffer (concentrations described below). Final assay concentrations (described below) are in 2.5% DMSO. The reactions are performed for ˜2 hours, then stopped by the addition of 10 μl of 0.75 μg/ml anti-phospho Ser/Thr antibody (Cell Signaling), 10 μg/ml Protein A AlphaScreen beads (Perkin Elmer), and 10 μg/ml streptavidin coated AlphaScreen beads in stop/detection buffer (50 mM EDTA, 95 mM Tris, pH=7.5, 0.01% Tween-20). The stopped reactions are incubated overnight in the dark. The phosphorylated peptide is detected via an […] initiated chemiluminescence/fluorescence cascade using the Envision plate reader (Perkin Elmer).
(§2) IC50, the half maximal inhibitory concentration, represents the concentration of a test compound that is required for 50% inhibition of its target in vitro under the described assay conditions.

[3] = target: PIM2 (Homo sapiens, UniProt Q9P1W9); test: Pim 2 AlphaScreen assay (high ATP); conditions: read-out: Pim2 IC50
Summary of the method: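 This is a bead-based AlphaScreen run at high ATP (11-125× Km) with biotin-Bad peptide (100 nM in the substrate mix), in 50 mM Hepes pH 7.5, 5 mM MgCl2, 0.05% BSA, 0.01% Tween-20, 1 mM DTT and 2.5% DMSO final. After ~2 h the reaction was stopped with EDTA. Phospho-peptide was detected overnight with anti-phospho Ser/Thr antibody on Protein A and streptavidin beads, giving IC50.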

[4] = target: PIM3 (Homo sapiens, UniProt Q86V86); test: Pim 3 AlphaScreen assay (high ATP); conditions: read-out: Pim3 IC50
Description: as §1, §2

Sequence of PIM2 (Q9P1W9 whole entry): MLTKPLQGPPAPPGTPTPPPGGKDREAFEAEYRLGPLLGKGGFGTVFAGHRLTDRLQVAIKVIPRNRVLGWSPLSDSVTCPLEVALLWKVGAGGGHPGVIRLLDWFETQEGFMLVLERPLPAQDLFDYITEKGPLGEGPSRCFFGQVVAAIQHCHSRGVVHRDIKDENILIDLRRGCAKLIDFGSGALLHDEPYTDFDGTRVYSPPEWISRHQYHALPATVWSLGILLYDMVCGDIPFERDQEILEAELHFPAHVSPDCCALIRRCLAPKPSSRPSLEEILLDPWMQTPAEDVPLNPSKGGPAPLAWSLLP
Sequence of GSK3β (P49841 whole entry, species assumed): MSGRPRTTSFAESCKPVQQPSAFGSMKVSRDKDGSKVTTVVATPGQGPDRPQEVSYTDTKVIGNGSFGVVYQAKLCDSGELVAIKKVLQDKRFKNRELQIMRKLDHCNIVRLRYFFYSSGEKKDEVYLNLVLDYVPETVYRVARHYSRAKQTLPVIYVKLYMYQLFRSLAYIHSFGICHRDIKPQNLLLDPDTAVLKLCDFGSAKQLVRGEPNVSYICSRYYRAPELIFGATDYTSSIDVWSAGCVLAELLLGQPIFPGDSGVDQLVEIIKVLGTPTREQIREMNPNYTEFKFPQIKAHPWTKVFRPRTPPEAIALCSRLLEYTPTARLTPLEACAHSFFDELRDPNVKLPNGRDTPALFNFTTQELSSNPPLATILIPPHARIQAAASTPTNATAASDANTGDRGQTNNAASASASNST
Sequence of PIM1 (P11309 whole entry): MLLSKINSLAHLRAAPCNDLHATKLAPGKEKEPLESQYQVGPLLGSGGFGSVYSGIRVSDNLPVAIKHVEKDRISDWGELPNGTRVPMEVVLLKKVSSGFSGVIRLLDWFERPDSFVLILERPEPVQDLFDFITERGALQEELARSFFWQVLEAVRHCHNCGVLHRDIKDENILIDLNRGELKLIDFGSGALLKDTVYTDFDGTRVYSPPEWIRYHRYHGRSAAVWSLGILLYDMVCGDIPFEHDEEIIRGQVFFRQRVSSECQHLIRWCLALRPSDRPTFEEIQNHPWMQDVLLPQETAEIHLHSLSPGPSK

IC50 [1] | IC50 [2] | IC50 [3] | IC50 [4] | Structure (SMILES)
> 25000 nM | 3.67 nM | 209 nM | 116 nM | N[C@H]1C[C@@H](c2ccncc2NC(=O)c2ccc(F)c(-c3c(F)cccc3F)n2)O[C@@H](C2CC2)[C@@H]1O [Example 236, N-(4-((2S,4S,5R,6S)-4-amino-6-cyclopropyl-5-hydroxytetrahydro-2H-pyran-2-yl)pyridin-3-yl)-6-(2,6-difluorophenyl)-5-fluoropicolinamide]
13 nM | 3.37 nM | 70 nM | 24 nM | N[C@@H]1C[C@H](c2ccncc2NC(=O)c2ccnc(-c3c(F)cccc3F)n2)O[C@@H]2CCCC[C@]12O [Example 237, N-(4-((2R,4R,4aS,8aR)-4-amino-4a-hydroxyoctahydro-2H-chromen-2-yl)pyridin-3-yl)-2-(2,6-difluorophenyl)pyrimidine-4-carboxamide]
352 nM | 0.92 nM | 24 nM | 8.4 nM | CC[C@]1(O)[C@H](N)C[C@H](c2ccncc2NC(=O)c2nc(-c3c(F)cccc3F)ncc2N)O[C@@H]1C [Example 239, 5-amino-N-(4-((2R,4R,5S,6R)-4-amino-5-ethyl-5-hydroxy-6-methyltetrahydro-2H-pyran-2-yl)pyridin-3-yl)-2-(2,6-difluorophenyl)pyrimidine-4-carboxamide]
6300 nM | 20.8 nM | 393 nM | 132 nM | N[C@@H]1C[C@H](c2ccncc2NC(=O)c2ccc(F)c(-c3c(F)cccc3F)n2)O[C@@H]2CCC(=O)N[C@@H]12 [Example 241, N-(4-((2R,4R,4aS,8aR)-4-amino-6-oxooctahydro-2H-pyrano[3,2-b]pyridin-2-yl)pyridin-3-yl)-6-(2,6-difluorophenyl)-5-fluoropicolinamide]
809 nM | 0.08 nM | 12.2 nM | 1.2 nM | COc1ccc(F)c(-c2nc(C(=O)Nc3cnccc3[C@H]3C[C@@H](N)[C@](C)(O)[C@@H](C)O3)ccc2F)c1F [Example 244, N-(4-((2R,4R,5S,6R)-4-amino-5-hydroxy-5,6-dimethyltetrahydro-2H-pyran-2-yl)pyridin-3-yl)-6-(2,6-difluoro-3-methoxyphenyl)-5-fluoropicolinamide]
768 nM | 0.05 nM | 6.9 nM | 0.8 nM | Cc1cc(F)c(-c2nc(C(=O)Nc3cnccc3[C@H]3C[C@@H](N)[C@](C)(O)[C@@H](C)O3)ccc2F)c(F)c1 [Example 245, N-(4-((2R,4R,5S,6R)-4-amino-5-hydroxy-5,6-dimethyltetrahydro-2H-pyran-2-yl)pyridin-3-yl)-6-(2,6-difluoro-4-methylphenyl)-5-fluoropicolinamide]
983 nM | 71.2 nM | 818 nM | 970 nM | C[C@]1(O)[C@H](O)C[C@H](c2ccncc2NC(=O)c2nc(-c3c(F)cccc3F)ncc2N)O[C@@H]1C1CC1 [Example 246, 5-amino-N-(4-((2R,4R,5S,6R)-6-cyclopropyl-4,5-dihydroxy-5-methyltetrahydro-2H-pyran-2-yl)pyridin-3-yl)-2-(2,6-difluorophenyl)pyrimidine-4-carboxamide]
1200 nM | 4.01 nM | 185 nM | 103 nM | C[C@]1(O)[C@H](O)C[C@H](c2ccncc2NC(=O)c2ccc(F)c(-c3c(F)cccc3F)n2)O[C@@H]1C1CC1 [Example 247, N-(4-((2R,4R,5S,6R)-6-cyclopropyl-4,5-dihydroxy-5-methyltetrahydro-2H-pyran-2-yl)pyridin-3-yl)-6-(2,6-difluorophenyl)-5-fluoropicolinamide]
1970 nM | 92 nM | 9280 nM | 2270 nM | C[C@@]1(O)[C@@H](O)C[C@@H](c2ccncc2NC(=O)c2ccc(F)c(-c3c(F)cccc3F)n2)O[C@H]1C1CC1 [Example 248, N-(4-((2S,4S,5R,6S)-6-cyclopropyl-4,5-dihydroxy-5-methyltetrahydro-2H-pyran-2-yl)pyridin-3-yl)-6-(2,6-difluorophenyl)-5-fluoropicolinamide]
6020 nM | 989 nM | > 25000 nM | 20900 nM | C[C@@]1(O)[C@@H](O)C[C@@H](c2ccncc2NC(=O)c2nc(-c3c(F)cccc3F)ncc2N)O[C@H]1C1CC1 [Example 249, 5-amino-N-(4-((2S,4S,5R,6S)-6-cyclopropyl-4,5-dihydroxy-5-methyltetrahydro-2H-pyran-2-yl)pyridin-3-yl)-2-(2,6-difluorophenyl)pyrimidine-4-carboxamide]
1040 nM | 20.1 nM | 3590 nM | 499 nM | O=C(Nc1cnccc1[C@@H]1C[C@H](O)[C@@H](O)C2(CC2)O1)c1ccc(F)c(-c2c(F)cccc2F)n1 [Example 250, 6-(2,6-difluorophenyl)-N-(4-((5S,7S,8R)-7,8-dihydroxy-4-oxaspiro[2.5]octan-5-yl)pyridin-3-yl)-5-fluoropicolinamide]
1110 nM | 90.7 nM | 9100 nM | 1320 nM | Nc1cnc(-c2c(F)cccc2F)nc1C(=O)Nc1cnccc1[C@@H]1C[C@H](O)[C@@H](O)C2(CC2)O1 [Example 251, 5-amino-2-(2,6-difluorophenyl)-N-(4-((5S,7S,8R)-7,8-dihydroxy-4-oxaspiro[2.5]octan-5-yl)pyridin-3-yl)pyrimidine-4-carboxamide]
572 nM | 20.3 nM | 848 nM | 252 nM | Nc1cnc(-c2c(F)cccc2F)nc1C(=O)Nc1cnccc1[C@H]1C[C@@H](O)[C@H](O)C2(CC2)O1 [Example 252, 5-amino-2-(2,6-difluorophenyl)-N-(4-((5R,7R,8S)-7,8-dihydroxy-4-oxaspiro[2.5]octan-5-yl)pyridin-3-yl)pyrimidine-4-carboxamide]
273 nM | 0.99 nM | 79.5 nM | 12.6 nM | O=C(Nc1cnccc1[C@H]1C[C@@H](O)[C@H](O)C2(CC2)O1)c1ccc(F)c(-c2c(F)cccc2F)n1 [Example 253, 6-(2,6-difluorophenyl)-N-(4-((5R,7R,8S)-7,8-dihydroxy-4-oxaspiro[2.5]octan-5-yl)pyridin-3-yl)-5-fluoropicolinamide]
4690 nM | 0.78 nM | 47.2 nM | 16 nM | CC(C)(C)[C@@H]1O[C@H](c2ccncc2NC(=O)c2ccc(F)c(-c3c(F)cccc3F)n2)C[C@H](N)[C@H]1O [Example 254, N-(4-((2S,4S,5R,6S)-4-amino-6-(tert-butyl)-5-hydroxytetrahydro-2H-pyran-2-yl)pyridin-3-yl)-6-(2,6-difluorophenyl)-5-fluoropicolinamide]
2190 nM | 0.03 nM | 1.7 nM | 0.4 nM | CC(C)(C)[C@H]1O[C@@H](c2ccncc2NC(=O)c2ccc(F)c(-c3c(F)cccc3F)n2)C[C@@H](N)[C@@H]1O [Example 255, N-(4-((2R,4R,5S,6R)-4-amino-6-(tert-butyl)-5-hydroxytetrahydro-2H-pyran-2-yl)pyridin-3-yl)-6-(2,6-difluorophenyl)-5-fluoropicolinamide]
4620 nM | 0.17 nM | 6.1 nM | 1.7 nM | C[C@]1(O)[C@H](N)C[C@H](c2ccncc2NC(=O)c2ccc(F)c(-c3c(F)cccc3F)n2)O[C@@H]1C1CC1 [Example 256, N-(4-((2R,4R,5S,6R)-4-amino-6-cyclopropyl-5-hydroxy-5-methyltetrahydro-2H-pyran-2-yl)pyridin-3-yl)-6-(2,6-difluorophenyl)-5-fluoropicolinamide]
20000 nM | 1.88 nM | 173 nM | 35.9 nM | C[C@@]1(O)[C@@H](N)C[C@@H](c2ccncc2NC(=O)c2ccc(F)c(-c3c(F)cccc3F)n2)O[C@H]1C1CC1 [Example 257, N-(4-((2S,4S,5R,6S)-4-amino-6-cyclopropyl-5-hydroxy-5-methyltetrahydro-2H-pyran-2-yl)pyridin-3-yl)-6-(2,6-difluorophenyl)-5-fluoropicolinamide]
